# Assay results published in article PMC6195434 (Environmental science & technology, 2018).
# Read-outs that look alike come from different tables or passages of the source.
# Legend:
# [1] = biological target: T1, RyR1 (Oryctolagus cuniculus, UniProt P11716); conditions: previous data; cited from earlier work
# [2] = tested on: microsomal (JSR) membrane vesicles; assay: Microsomal Ca2+ fluxes and Ca2+-induced Ca2+ release; type: biochemical, New Zealand White rabbits
# [3] = biological target: T1, RyR1; assay: Equilibrium [3H]Ry binding analysis on RyR1-enriched microsomal membranes; set-up: species or system New Zealand White rabbits; conditions: for activity in enhancing [3H]Ry binding to RyR1: concentration-response, efficacy at 10 μM, Figure 3A, B; for RyR1 inhibitory potency compared with 6 / decrease of apparent activation potency relative to 6: Figure 3C table insert; for maximum efficacy relative to 6: higher maximum efficacy at 50 μM compared to that reached by 6 at 1 μM; for decrease of apparent activation potency relative to 6: less potent activator than 6
# [4] = biological target: SERCA1a (Oryctolagus cuniculus, UniProt P04191); assay: biochemical; type: biochemical, New Zealand White rabbits; conditions: for inhibition at 10 µM: read-out: SERCA1a inhibition; for activity toward SERCA1a: Figure 5G
# Sequence of SERCA1a (P04191 1-994 isoform P04191-2): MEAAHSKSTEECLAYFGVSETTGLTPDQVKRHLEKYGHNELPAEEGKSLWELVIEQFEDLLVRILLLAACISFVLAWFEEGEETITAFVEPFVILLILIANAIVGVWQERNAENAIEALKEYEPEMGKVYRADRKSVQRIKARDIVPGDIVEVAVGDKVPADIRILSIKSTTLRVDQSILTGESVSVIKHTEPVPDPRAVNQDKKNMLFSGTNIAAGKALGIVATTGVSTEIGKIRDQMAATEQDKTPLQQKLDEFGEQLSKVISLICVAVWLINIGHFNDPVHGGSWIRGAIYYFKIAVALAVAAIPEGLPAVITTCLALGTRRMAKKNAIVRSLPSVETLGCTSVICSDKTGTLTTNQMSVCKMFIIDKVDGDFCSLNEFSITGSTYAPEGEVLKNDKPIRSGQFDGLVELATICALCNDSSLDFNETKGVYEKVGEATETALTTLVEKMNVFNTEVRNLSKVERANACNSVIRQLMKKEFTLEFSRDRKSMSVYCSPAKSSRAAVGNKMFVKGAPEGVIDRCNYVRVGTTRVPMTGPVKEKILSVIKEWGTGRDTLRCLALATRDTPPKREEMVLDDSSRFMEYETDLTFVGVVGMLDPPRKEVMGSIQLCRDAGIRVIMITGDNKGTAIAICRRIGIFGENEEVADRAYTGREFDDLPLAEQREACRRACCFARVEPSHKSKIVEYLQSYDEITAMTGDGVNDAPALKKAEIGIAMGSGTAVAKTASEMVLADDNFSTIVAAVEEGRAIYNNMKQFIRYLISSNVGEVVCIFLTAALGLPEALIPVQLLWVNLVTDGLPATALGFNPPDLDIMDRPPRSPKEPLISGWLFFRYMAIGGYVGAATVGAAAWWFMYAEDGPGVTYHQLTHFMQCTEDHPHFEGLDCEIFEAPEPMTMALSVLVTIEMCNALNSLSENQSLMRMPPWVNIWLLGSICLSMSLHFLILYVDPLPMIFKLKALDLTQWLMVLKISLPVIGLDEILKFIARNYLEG
# [5] = tested on: Platynereis dumerilii embryos; conditions: cited from earlier work
# [6] = tested on: CHO (Chinese hamster ovary) cells; conditions: cited from earlier work
# [7] = at 2 μM, baseline = binding in presence of Veh alone, p < 0.05 vs Veh
# [8] = 5 or 10 μM, initial 60 s release rate, vesicles loaded with 4 × 45 nmole Ca2+
# [9] = expanded concentration range, Figure 3C
molecule,measurement,setting,value
Brc1ccc(Oc2cc(Br)ccc2Br)c(Br)c1 [BDE-49],mode of action toward RyR1,[1],monotonic
"Oc1cc(Br)c(Oc2ccc(Br)cc2Br)cc1Br [Compound 4-OH-BDE-49, 4′hydroxy-2,2′,4,5′-tetrabromodiphenyl ether]",mode of action toward RyR1,[1],biphasic
"O=C1NC(=O)C(Br)=C1Br [Compound 6, 2,3-dibromomaleimide]",Ca2+-induced Ca2+ release rate vs control,[2],significantly higher rates of release than control
same,net release of accumulated Ca2+ from loaded microsomal vesicles,[2],failed to trigger net Ca^2+ efflux
same,sensitizing influence on calcium-induced calcium release,[2],did not reach statistical significance
same,EC50,[3],360 nM
same,IC50,[3],3000 nM
same,concentration at which RyR1 inhibitory phase was detected,[3],< 5 µM
same,concentration that maximally activated RyR1,[3],0.6−1.0 μM
same,enhancement of [3H]Ry binding to RyR1 compared to baseline,[3],≥ 1.5 fold
same,mode of modulation of RyR1,[3],biphasic
same,SERCA1a inhibition,[4],without inhibition of SERCA1a
same,concentration at which SERCA1a inhibition was detected (only the highest tested),[4],10 µM
same,inhibition at 10 µM,[4],50%
"Clc1[nH]c2ccccc2c1Cl [Compound 13, 2,3-dichloroindole]",enhancement of [3H]Ry binding to RyR1 compared to baseline,[3]; [7],≥ 1.5 fold
"Brc1[nH]c2ccccc2c1Br [Compound 14, 2,3-dibromoindole]",net release of accumulated Ca2+ from loaded microsomal vesicles,[2]; [8],triggered dose-dependent Ca^2+ efflux
same,enhancement of [3H]Ry binding to RyR1 compared to baseline,[3]; [7],≥ 1.5 fold
same,inhibition at 10 µM,[4],60%
"Oc1c(Br)cc(Oc2c(Br)cc(Br)cc2Br)cc1Br [Compound 18, 4′-hydroxy-2,3′,4,5′,6-pentabromodiphenyl ether]",net release of accumulated Ca2+ from loaded microsomal vesicles,[2]; [8],triggered dose-dependent Ca^2+ efflux
same,enhancement of [3H]Ry binding to RyR1 compared to baseline,[3]; [7],≥ 1.5 fold
same,SERCA1a inhibition,[4]; at 2.0 μM,> 80%
same,SERCA1a inhibition,[4]; at 10 μM,~ 90%
"c1cc[nH]c1 [Compound 24, pyrrole]",activity in enhancing [3H]Ry binding to RyR1,[3],inactive
same,activity toward SERCA1a,[4],inactive
"Brc1c[nH]c(Br)c1Br [Compound 26, 2,3,4-tribromopyrrole]",net release of accumulated Ca2+ from loaded microsomal vesicles,[2]; [8],failed to trigger net release
same,activity in enhancing [3H]Ry binding to RyR1,[3],inactive
same,activity toward SERCA1a,[4],inactive
"CCOC(=O)c1cc(Br)c[nH]1 [Compound 27, ethyl-4-bromopyrrole-2-carboxylate]",net release of accumulated Ca2+ from loaded microsomal vesicles,[2]; [8],failed to trigger net release
same,activity in enhancing [3H]Ry binding to RyR1,[3],inactive
same,activity toward SERCA1a,[4],inactive
"CN1C(=O)C(Br)=C(Br)C1=O [Compound 28, 2,3-dibromo-N-methylmaleimide]",enhancement of [3H]Ry binding to RyR1 compared to baseline,[3]; [7],≥ 1.5 fold
same,mode of modulation of RyR1,[3]; [9],biphasic
"Brc1[nH]c(Br)c(Br)c1Br [Compound 31, tetrabromopyrrole]",net release of accumulated Ca2+ from loaded microsomal vesicles,[2]; [8],triggered dose-dependent Ca^2+ efflux
same,RyR1 inhibitory potency compared with 6,[3],weaker inhibitors than 6
same,enhancement of [3H]Ry binding to RyR1 compared to baseline,[3]; [7],≥ 1.5 fold
same,mode of modulation of RyR1,[3]; [9],biphasic
same,maximum efficacy relative to 6,[3],2.5 fold
same,decrease of apparent activation potency relative to 6,[3],68 fold
same,SERCA1a inhibition,[4]; at 10 μM,80%
same,developmental toxicity,[5],potent developmental toxicity
"Brc1cc(Br)c(Br)[nH]1 [Compound 34, 2,3,5-tribromopyrrole]",net release of accumulated Ca2+ from loaded microsomal vesicles,[2]; [8],triggered dose-dependent Ca^2+ efflux
same,RyR1 inhibitory potency compared with 6,[3],weaker inhibitors than 6
same,enhancement of [3H]Ry binding to RyR1 compared to baseline,[3]; [7],≥ 1.5 fold
same,mode of modulation of RyR1,[3]; [9],biphasic
same,maximum efficacy relative to 6,[3],2.5 fold
same,decrease of apparent activation potency relative to 6,[3],107 fold
same,inhibition at 10 µM,[4],48%
same,cytotoxicity,[6],cytotoxic
same,genotoxicity,[6],genotoxic
Hexabromobipyrroles [Compound 25],net release of accumulated Ca2+ from loaded microsomal vesicles,[2]; [8],triggered dose-dependent Ca^2+ efflux
same,loading capacity of calcium into microsomal vesicles,"[2]; concentration-dependent, Figure SI3",diminished the loading capacity
same,enhancement of [3H]Ry binding to RyR1 compared to baseline,[3]; [7],≥ 1.5 fold
same,SERCA1a inhibition,[4]; at 2.0 μM,> 80%
same,SERCA1a inhibition,[4]; at 10 μM,~ 90%
